Results from ChEMBL document CHEMBL1144949, “4-Phenyl-4H-pyrans as IK(Ca) channel blockers” (Bioorg Med Chem Lett, 2003).

Each compound was assayed on C6-BU-1 (assay: IKCa channel inhibition was determined measuring ionomycin-induced Rb+ efflux of pre loaded rat C6BU1 glioma cell in comparison with Nifedipine; NA=Inactive at 1000 nM).
Type: functional, cell-based

IC50	Structure (SMILES)
Not Active	CCCCOC(=O)C1=C(C)OC(C)=C(C(=O)OCCCC)C1c1ccc(Cl)cc1

Each compound was assayed on C6-BU-1 (assay: IKCa channel inhibition was determined at 72% residual Rb+ efflux of pre loaded rat C6BU1 glioma cell in comparison with Nifedipine).
Type: functional, cell-based

IC50 [µM]	Structure (SMILES)
1	CCCOC(=O)C1=C(C)OC(C)=C(C(=O)OCCC)C1c1ccc(Cl)cc1

These compounds were tested on C6-BU-1 (assay: IKCa channel inhibition was determined measuring ionomycin-induced Rb+ efflux of pre loaded rat C6BU1 glioma cell in comparison with Nifedipine).
Type: functional, cell-based

IC50 [µM]	Structure (SMILES)
0.035	CCOC(=O)C1=C(C)OC(C)=C(C(=O)OC)C1c1ccc(Cl)cc1 (racemic)
0.024	COC(=O)C1=C(C)OC(C)=C(C(=O)OC)C1c1ccc(Cl)c(C(F)(F)F)c1
0.16	COC(=O)C1=C(C)OC(C)=C(C(=O)OC)C1c1ccccc1
0.22	CC(=O)C1=C(C)OC(C)=C(C(C)=O)C1c1ccc(Cl)cc1
0.15	CCOC(=O)C1=C(C)OC(C)=C(C(=O)OCC)C1c1ccc(Cl)cc1
0.008	COC(=O)C1=C(C)OC(C)=C(C(C)=O)C1c1ccc(Cl)c(C(F)(F)F)c1 (racemic)
0.024	COC(=O)C1=C(C)OC(C)=C(C(=O)OC)C1c1ccc(Cl)cc1
0.026	COC(=O)C1=C(C)OC(C)=C(C(=O)OC)C1c1cccc(Cl)c1
0.075	COC(=O)C1=C(C)OC(C)=C(C(C)=O)C1c1ccc(Cl)cc1 (racemic)
0.1	COC(=O)C1=C(C)OC(C)=C(C(=O)OC)C1c1ccccc1Cl

Structure (SMILES)	IC50 [µM]
COC(=O)C1=C(C)NC(C)=C(C(=O)OC)C1c1ccccc1[N+](=O)[O-] [NIFEDIPINE]	1
